A value given as a limit tells only on which side of the number the result lay.

The text below walks through data of patent US20250066316A1, “CRYSTALLINE FORMS OF A COMPOUND FOR TREATING OR PREVENTING GOUT OR HYPERURICEMIA” (Arthrosi Therapeutics, Inc., priority 2021, published 2025).

The target in data set [1] is T1, human URAT1 uptake transporter (Homo sapiens, UniProt Q96S37).
T1 construct: expressed in transfected cells
T1 sequence (Q96S37 1-553): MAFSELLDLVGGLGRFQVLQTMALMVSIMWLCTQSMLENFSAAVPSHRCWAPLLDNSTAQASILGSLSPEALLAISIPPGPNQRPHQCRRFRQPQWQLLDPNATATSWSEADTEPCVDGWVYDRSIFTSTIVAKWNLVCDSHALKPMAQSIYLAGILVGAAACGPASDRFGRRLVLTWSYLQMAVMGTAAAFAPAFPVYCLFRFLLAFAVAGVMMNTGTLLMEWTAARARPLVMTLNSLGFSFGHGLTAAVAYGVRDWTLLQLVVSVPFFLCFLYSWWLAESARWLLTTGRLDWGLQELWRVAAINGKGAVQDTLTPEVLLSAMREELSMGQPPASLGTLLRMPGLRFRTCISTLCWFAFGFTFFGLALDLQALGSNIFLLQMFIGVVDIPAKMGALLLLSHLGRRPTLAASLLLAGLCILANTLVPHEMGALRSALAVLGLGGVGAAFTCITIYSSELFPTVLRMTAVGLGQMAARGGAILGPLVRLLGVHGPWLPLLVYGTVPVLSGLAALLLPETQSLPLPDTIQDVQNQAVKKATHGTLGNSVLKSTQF
The data set is described as follows: In vitro interaction with the human URAT1 uptake transporter (uric acid uptake in MDCKII cells). Type of data set: cell-based. The settings on record: for inhibition at 10 µM: MDCK-II, read-out: inhibition of URAT1 mediated uric acid accumulation. The method, then: Uptake experiments were performed using MDCKII cells stably expressing the human URAT1 uptake transporter. Cells were cultured at 37±1° C. in an atmosphere of 95:5 air:CO2 and were plated onto standard 96-well tissue culture plates at the cell number described in Table 1.
Radiolabelled probe substrate transport was determined by measuring an aliquot (35 μL) from each well for liquid scintillation counting.

Data set [2] is described as follows: Solubility of test articles in HBSS assay buffer. The settings on record: all tested concentrations; highest tested concentration 10 μM.
Method: Before the experiment, the medium was removed and the cells were washed twice with 100 μL of HBSS without Cl^−. Uptake experiments were carried out at 37±1° C. in 50 μL of HBSS without Cl^−, pH 7.4 containing the probe substrate (20 μM uric acid) and the test article (TA) or solvent.
For data set [3] the following is noted: cited from earlier work.
The nature of data set [4]: Stability in human microsomes. It is filed as in vitro ADME. The note with it: comparison with benzbromarone.
Data set [5] has as its target CYP2C9 (Homo sapiens, UniProt P11712). The data set is described as follows: CYP2C9 metabolic pathway / metabolite formation. It is filed as in vitro ADME.

CYP2C9, sequence (P11712 whole entry): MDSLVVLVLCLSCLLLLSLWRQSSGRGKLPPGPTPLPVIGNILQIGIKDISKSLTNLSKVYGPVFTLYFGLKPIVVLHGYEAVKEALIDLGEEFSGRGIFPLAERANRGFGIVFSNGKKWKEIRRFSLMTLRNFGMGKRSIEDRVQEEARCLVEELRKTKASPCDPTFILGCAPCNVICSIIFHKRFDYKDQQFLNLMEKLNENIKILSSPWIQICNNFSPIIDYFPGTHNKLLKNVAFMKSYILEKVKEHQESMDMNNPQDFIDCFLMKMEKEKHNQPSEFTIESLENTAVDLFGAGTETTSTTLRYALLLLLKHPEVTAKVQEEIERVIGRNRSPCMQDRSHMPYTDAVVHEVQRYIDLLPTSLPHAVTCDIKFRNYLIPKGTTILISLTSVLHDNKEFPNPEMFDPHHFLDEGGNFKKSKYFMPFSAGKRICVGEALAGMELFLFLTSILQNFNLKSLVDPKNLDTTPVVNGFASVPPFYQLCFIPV

Consider `CCc1oc2ccccc2c1C(=O)c1cc(Br)c(O)c(Br)c1` [Benzbromarone, reference compound], for which the inhibition (commonly the share of the control response that was lost under treatment) at 10 µM in data set [1] was found to be 98%. Also, the “solubility in HBSS buffer” value in data set [2] is listed as “soluble”. The “serum uric acid (sUA) level reached” value in data set [3] (chronic therapy, target levels) is less than 6 mg/dL. For the same compound, the hepatotoxicity result in data set [3] (in certain patients) was “associated with hepatotoxicity”.
As to `[2H]c1c([2H])c([2H])c2c(C(=O)c3cc(Br)c(O)c(Br)c3)c(C(C)O)oc2c1[2H]` (stereo not shown) [Compound 1, (3,5-dibromo-4-hydroxyphenyl) (2-(1-hydroxyethyl)benzofuran-3-yl-4,5,6,7-d4) methanone], in data set [4], the “stability in human microsomes” value is “more stable than benzbromarone”. The inhibition at 10 µM in data set [1] turned out to be 100%. For the same compound, in data set [1] (comparison with benzbromarone), the “in vitro URAT1 potency compared to benzbromarone” value is given as “better”. For the same compound, in data set [2], the “solubility in HBSS buffer” value is reported as “soluble”. In data set [5], the “CYP2C9 metabolic pathway of the compound” value was “significantly reduced”; the “formation of 6-OH benzbromarone and 5,6-di-OH benzbromarone metabolites” value is “not formed”.
